# Counter-ions that a name gives are not always drawn. Like-named read-outs stand apart in the source and are kept apart here.
# What was measured:
# [1] = tested on: Muskelrelax. + Sedierung Maus; test: Muscle relaxation and sedation (Versuch 3); type: in vivo; conditions: mouse; method text not readable (image)
# [2] = tested on: maximalen Elektrokrampf bei Mäusen; test: Anticonvulsant effect: maximal electroshock seizure (Versuch 2); type: in vivo, Maus; conditions: Mus musculus, 2.5 h
# Excerpt: (§1) Beispielsweise wurden die Verbindungen • A = 2-(2-Amino-3,5-dibrom-phenoxy-methylen)-morpholin-hydrochlorid, • B = 2-(4-Amino-3,5-dibrom-phenoxy-methylen)-4-isopropyl-morpholin- hydrochlorid, • C = 2-(4-Amino-3,5-dibrom-phenoxy-methylen)-morpholin-hydrochlorid, • D = 2-(2-Amino-3,5-dibrom-phenoxy-methylen)-4-tert.butyl-morpholin-hydrochlorid und • E = 2-(2-Amino-5-brom-4-chlor-phenoxy-methylen)-4-isopronyl- morpholin-dihydrochlorid ,im Vergleich zu • F = 2-(2-Äthoxy-phenoxy-methylen)-morpholin-hydrochlorid auf ihre biologischen Wirkungen wie folgt untersucht: • 1. […] Bei 20 - 26 g schweren männlichen Mäusen wurde durch 3 mg/kg Reserpin s.c. Hypothermie erzeugt. 17 Stunden später wurde die Körpertemperatur mittels eines elektrischen Schlundsondenthermometers gemessen. Anschließend wurden Gruppen von 6 - 10 Tieren die zu prüfenden Substanzen in der Dosis von 40 mg/kg p.o. verabreicht. Kontrollgruppen erhielten das Lösungsmittel (Aqua dest.). Die Körpertemperaturen wurden 1 - 4 Stunden nach Substanzverabreichung in stündlichem Abstand gemessen. Zur Auswertung wurden der maximale Wiederanstieg der Körpertemperatur der Substanzgruppe mit den Temperaturen der Kontrolltiergruppen verglichen und die Temperaturunterschiede mit dem MANN-WHITNEY-U-Test auf Signifikanz geprüft. • 2. […] Dazu wurde bei 10 männlichen, 20-26 g schweren Mäusen ein Krampfzustand mit Wechselstrom (50 mA, 50 Hz, 0,2 sec Dauer) über mit physiologischer : Kochsalz-Lösung angefeuchtete, an den Kopf der Tiere gelegte Metallelektroden erzeugt, wobei das Ausbleiben der tonischen Extensorkomponente dieses Krampfes 150 Minuten nach Substanzgabe als antikonvulsive Wirkung gewertet wurde.
# [3] = tested on: durch Reserpin hervorgerufene Hypothermie bei Mäusen; test: Antidepressant effect: antagonism of reserpine-induced hypothermia (Versuch 1); type: in vivo, Maus; conditions: 40 mg/kg p.o., 17 h after 3 mg/kg Reserpin s.c.; maximal re-rise of body temperature versus controls, measured 1 - 4 h after dosing; * = significant versus controls, p ≤ 0,05
# Excerpt: as §1
# [4] = male mice, 50 mA, 50 Hz, 0,2 sec, absence of tonic extensor component 150 min after dosing, ED50 by LITCHFIELD and WILCOXON, read-out: Versuch 2 Elektrokrampf Maus ED50-Hemmung
SMILES,ED50 [1],"ED50 [2, 4]",Versuch 1 Reserpin Maus 40 mg/kg: +°C [3],ED50 ([2]; read-out: Versuch 2 Elektrokrampf Maus ED50-Hemmung mg/kg)
"Nc1c(Br)cc(Br)cc1OCC1CNCCO1 (stereo not drawn) [A, 2-(2-Amino-3,5-dibrom-phenoxy-methylen)-morpholin-hydrochlorid]",> 200 mg/kg,26.5 mg/kg,"10,7* °C",–
"CC(C)N1CCOC(COc2cc(Br)c(N)c(Br)c2)C1 (stereo not drawn) [B, 2-(4-Amino-3,5-dibrom-phenoxy-methylen)-4-isopropyl-morpholin-hydrochlorid]",60 mg/kg,26 mg/kg,"8,4* °C",–
"Nc1c(Br)cc(OCC2CNCCO2)cc1Br (stereo not drawn) [C, 2-(4-Amino-3,5-dibrom-phenoxy-methylen)-morpholin-hydrochlorid]",21 mg/kg,17.5 mg/kg,"7,3* °C",–
"CC(C)(C)N1CCOC(COc2cc(Br)cc(Br)c2N)C1 (stereo not drawn) [D, 2-(2-Amino-3,5-dibrom-phenoxy-methylen)-4-tert.butyl-morpholin-hydrochlorid]",> 200 mg/kg,150 mg/kg,"0,6 °C",–
"CC(C)N1CCOC(COc2cc(Br)c(Cl)cc2N)C1 (stereo not drawn) [E, 2-(2-Amino-5-brom-4-chlor-phenoxy-methylen)-4-isopronyl-morpholin-dihydrochlorid]",> 200 mg/kg,200 mg/kg,"1,0 °C",–
"CCOc1ccccc1OCC1CNCCO1 (stereo not drawn) [F, 2-(2-Äthoxy-phenoxy-methylen)-morpholin-hydrochlorid, reference compound]",~200 mg/kg,–,"9,8* °C",42 mg/kg
